According to ChEMBL document CHEMBL5465560, “Selectivity Literature for EUbOPEN Chemogenomic Library” (2024):
One block for each compound: values may come before it.

Experiments:
[1] = molecular target: Bromodomain-containing protein 9 (Homo sapiens) (UniProt Q9H8M2); assay: Selectivity interaction (Human bromodomain panel (DSF assay)) EUB0000233b BRD9
[2] = molecular target: T1, Beta-adrenergic receptor kinase 1 (Homo sapiens) (UniProt P25098); assay: Selectivity interaction (SelectScreen profiling (Invitrogen)) EUB0000607a ADRBK1; settings: at 2 µM
T1 sequence (whole entry): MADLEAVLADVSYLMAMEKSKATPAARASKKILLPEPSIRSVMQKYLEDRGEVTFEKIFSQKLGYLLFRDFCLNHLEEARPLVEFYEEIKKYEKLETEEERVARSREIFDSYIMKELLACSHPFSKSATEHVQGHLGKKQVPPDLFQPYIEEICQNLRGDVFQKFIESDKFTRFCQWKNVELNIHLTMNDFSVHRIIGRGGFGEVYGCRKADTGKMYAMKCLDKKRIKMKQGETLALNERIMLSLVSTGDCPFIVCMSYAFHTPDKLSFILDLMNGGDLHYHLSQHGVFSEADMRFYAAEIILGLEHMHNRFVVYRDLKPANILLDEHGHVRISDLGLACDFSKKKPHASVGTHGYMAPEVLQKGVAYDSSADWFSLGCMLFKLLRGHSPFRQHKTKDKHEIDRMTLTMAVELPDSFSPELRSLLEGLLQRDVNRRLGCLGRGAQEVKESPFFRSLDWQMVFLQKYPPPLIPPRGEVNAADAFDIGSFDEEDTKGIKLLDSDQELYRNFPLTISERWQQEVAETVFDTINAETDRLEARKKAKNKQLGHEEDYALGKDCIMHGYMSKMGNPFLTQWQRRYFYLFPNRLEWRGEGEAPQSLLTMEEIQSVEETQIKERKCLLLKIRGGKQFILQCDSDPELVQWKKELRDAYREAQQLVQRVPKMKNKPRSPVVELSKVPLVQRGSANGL

[3] = molecular target: Phosphatidylinositol 4-kinase beta (Homo sapiens, UniProt Q9UBF8); assay: Selectivity interaction (Kinase panel (Invitrogen)) EUB0000639a PI4KB; settings: at 200 nM
Chain of Phosphatidylinositol 4-kinase beta (Q9UBF8 2-816 limits assumed): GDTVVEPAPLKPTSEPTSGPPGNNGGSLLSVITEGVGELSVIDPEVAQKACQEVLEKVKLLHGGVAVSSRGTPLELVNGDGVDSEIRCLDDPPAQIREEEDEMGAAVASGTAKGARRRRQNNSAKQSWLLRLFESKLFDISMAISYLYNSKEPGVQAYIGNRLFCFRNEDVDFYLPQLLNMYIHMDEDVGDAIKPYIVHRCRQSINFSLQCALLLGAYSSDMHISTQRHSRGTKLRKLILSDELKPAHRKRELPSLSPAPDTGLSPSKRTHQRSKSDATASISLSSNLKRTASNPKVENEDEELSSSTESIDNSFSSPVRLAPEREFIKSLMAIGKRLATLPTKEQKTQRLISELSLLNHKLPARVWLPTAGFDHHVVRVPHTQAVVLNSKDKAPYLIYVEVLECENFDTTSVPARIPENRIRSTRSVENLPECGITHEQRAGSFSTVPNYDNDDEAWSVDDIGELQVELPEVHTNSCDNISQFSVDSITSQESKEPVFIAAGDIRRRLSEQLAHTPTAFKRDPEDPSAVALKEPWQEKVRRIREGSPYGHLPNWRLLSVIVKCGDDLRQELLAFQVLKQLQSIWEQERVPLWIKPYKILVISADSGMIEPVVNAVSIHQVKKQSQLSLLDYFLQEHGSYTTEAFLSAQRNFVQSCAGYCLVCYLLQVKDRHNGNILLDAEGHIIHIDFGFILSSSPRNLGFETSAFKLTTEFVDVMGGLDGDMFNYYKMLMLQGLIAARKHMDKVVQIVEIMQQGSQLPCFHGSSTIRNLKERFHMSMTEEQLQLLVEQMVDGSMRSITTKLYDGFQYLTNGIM

[4] = molecular target: Mitogen-activated protein kinase kinase kinase 9 (Homo sapiens) (UniProt P80192); assay: Selectivity interaction (KinomeScan (DiscoverX)) EUB0000695a MAP3K9; settings: at 100 nM
Chain of Mitogen-activated protein kinase kinase kinase 9 (Homo sapiens) (P80192 whole entry, looked up): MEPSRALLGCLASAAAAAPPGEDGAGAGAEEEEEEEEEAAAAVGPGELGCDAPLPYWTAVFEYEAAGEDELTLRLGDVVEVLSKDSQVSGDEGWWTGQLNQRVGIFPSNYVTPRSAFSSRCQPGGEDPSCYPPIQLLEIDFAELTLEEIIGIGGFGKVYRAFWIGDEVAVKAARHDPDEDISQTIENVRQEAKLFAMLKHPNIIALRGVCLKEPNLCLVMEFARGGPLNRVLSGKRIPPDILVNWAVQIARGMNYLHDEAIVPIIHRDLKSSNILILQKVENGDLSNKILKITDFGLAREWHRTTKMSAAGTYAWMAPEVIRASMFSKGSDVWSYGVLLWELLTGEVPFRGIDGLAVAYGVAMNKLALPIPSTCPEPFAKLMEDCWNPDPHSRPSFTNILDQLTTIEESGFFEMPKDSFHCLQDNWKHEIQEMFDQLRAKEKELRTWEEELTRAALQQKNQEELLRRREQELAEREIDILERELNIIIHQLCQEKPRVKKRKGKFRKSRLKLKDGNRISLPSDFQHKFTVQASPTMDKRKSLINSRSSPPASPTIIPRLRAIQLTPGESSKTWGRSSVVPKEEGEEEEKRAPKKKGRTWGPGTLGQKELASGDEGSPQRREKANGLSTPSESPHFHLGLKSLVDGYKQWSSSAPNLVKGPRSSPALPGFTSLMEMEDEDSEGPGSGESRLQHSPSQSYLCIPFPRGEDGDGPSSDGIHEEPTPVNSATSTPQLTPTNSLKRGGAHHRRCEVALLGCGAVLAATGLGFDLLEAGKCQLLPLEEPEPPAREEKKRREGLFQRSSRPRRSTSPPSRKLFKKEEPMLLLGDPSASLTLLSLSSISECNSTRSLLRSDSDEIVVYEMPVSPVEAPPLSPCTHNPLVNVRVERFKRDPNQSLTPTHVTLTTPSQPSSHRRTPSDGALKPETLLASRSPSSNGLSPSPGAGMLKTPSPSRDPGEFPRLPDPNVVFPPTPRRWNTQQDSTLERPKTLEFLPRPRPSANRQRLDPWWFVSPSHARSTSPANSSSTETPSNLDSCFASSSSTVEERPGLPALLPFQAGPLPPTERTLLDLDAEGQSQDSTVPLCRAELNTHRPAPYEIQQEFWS

[5] = molecular target: Serine/threonine-protein kinase OSR1 (Homo sapiens) (UniProt O95747); assay: Selectivity interaction (Kinase panel (DSF assay)) EUB0001558a OXSR1
Chain of Serine/threonine-protein kinase OSR1 (Homo sapiens) (O95747 2-527 limits assumed): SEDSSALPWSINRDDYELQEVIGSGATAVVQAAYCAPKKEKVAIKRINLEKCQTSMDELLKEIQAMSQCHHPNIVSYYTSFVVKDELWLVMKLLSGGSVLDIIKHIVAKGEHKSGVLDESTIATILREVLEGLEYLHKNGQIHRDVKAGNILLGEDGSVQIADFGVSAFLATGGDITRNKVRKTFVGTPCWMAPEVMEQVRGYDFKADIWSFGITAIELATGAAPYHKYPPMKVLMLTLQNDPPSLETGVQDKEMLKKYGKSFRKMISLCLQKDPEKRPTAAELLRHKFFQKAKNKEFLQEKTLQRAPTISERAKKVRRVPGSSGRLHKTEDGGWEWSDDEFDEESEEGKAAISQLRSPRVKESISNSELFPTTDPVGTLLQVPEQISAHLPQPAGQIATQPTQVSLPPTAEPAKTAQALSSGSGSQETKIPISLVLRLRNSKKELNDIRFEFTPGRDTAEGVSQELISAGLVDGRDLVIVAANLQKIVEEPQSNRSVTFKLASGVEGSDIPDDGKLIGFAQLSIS

[6] = molecular target: T2, Myosin light chain kinase family member 4 (Homo sapiens) (UniProt Q86YV6); assay: Selectivity interaction (KinomeScan (DiscoverX)) EUB0001079a MYLK4; settings: at 1 µM
T2 sequence (whole entry): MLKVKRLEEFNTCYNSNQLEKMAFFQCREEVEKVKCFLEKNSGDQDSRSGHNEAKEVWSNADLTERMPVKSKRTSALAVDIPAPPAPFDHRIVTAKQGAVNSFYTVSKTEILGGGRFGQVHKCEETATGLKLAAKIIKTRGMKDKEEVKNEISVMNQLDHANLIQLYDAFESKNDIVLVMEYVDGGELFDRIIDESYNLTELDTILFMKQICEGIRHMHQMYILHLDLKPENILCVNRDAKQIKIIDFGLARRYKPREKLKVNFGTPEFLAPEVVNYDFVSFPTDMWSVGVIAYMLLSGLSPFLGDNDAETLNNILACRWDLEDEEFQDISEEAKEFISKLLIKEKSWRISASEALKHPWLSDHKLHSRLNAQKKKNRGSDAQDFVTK

[7] = test system: Serine/threonine-protein kinase B-raf (Homo sapiens), P15056 [V600E]; settings: at 10 µM
Chain of Serine/threonine-protein kinase B-raf (Homo sapiens), P15056 [V600E] (P15056 whole entry V600E): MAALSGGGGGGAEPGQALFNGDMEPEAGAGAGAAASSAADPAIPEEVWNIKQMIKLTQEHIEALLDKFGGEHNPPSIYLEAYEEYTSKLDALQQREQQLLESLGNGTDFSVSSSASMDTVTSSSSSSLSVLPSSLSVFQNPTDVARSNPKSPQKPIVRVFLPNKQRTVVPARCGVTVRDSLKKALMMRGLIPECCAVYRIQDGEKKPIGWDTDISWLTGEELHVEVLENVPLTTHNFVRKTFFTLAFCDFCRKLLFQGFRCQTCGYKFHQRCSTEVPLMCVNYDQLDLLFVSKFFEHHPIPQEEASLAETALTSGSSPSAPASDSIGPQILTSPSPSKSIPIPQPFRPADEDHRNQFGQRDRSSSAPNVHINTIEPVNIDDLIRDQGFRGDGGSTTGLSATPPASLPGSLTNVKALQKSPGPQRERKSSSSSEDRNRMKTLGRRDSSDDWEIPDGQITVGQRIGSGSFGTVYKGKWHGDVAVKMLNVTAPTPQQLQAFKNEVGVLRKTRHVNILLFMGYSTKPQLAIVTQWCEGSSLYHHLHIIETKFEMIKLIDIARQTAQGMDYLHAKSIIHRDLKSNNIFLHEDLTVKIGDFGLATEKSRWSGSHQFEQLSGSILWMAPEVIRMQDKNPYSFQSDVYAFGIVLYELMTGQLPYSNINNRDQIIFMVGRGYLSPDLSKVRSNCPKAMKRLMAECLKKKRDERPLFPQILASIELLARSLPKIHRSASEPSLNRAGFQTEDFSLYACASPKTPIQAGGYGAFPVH

[8] = molecular target: Interferon-induced, double-stranded RNA-activated protein kinase (Homo sapiens) (UniProt P19525); settings: at 10 µM
Chain of Interferon-induced, double-stranded RNA-activated protein kinase (Homo sapiens) (P19525 whole entry): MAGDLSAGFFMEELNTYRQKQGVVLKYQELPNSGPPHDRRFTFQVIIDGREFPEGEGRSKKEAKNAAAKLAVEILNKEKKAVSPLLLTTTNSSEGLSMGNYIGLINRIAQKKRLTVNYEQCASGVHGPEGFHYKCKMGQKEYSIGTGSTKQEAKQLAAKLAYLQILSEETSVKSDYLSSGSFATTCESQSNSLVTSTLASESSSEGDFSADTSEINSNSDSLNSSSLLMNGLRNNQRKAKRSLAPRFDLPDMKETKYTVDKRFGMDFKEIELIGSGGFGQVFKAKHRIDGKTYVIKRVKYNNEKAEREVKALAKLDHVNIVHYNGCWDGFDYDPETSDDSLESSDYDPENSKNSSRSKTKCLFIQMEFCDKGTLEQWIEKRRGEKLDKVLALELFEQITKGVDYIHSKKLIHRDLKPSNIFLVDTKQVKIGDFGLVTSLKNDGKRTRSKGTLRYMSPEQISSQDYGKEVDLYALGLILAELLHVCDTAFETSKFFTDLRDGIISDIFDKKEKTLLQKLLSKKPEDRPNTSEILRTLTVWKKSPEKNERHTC

[9] = molecular target: T3, Serine/threonine-protein kinase MAK (Homo sapiens) (UniProt P20794); settings: at 10 µM
T3 sequence (whole entry): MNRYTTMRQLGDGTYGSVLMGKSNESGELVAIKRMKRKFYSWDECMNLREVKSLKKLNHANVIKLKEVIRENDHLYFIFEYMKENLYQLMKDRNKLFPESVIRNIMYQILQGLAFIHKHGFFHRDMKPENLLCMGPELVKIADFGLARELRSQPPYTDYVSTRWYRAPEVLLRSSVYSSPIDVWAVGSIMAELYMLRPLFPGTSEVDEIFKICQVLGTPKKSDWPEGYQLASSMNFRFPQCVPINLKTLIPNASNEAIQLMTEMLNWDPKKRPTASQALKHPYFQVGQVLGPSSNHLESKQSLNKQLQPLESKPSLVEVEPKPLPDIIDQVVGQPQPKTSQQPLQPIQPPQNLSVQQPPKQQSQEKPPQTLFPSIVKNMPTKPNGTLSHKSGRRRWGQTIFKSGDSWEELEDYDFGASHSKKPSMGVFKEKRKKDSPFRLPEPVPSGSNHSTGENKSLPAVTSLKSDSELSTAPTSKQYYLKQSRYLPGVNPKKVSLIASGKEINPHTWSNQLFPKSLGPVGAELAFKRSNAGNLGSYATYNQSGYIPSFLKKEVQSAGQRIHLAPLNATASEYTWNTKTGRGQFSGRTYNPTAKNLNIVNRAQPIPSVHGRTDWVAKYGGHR

Chain of Bromodomain-containing protein 9 (Homo sapiens) (Q9H8M2 whole entry): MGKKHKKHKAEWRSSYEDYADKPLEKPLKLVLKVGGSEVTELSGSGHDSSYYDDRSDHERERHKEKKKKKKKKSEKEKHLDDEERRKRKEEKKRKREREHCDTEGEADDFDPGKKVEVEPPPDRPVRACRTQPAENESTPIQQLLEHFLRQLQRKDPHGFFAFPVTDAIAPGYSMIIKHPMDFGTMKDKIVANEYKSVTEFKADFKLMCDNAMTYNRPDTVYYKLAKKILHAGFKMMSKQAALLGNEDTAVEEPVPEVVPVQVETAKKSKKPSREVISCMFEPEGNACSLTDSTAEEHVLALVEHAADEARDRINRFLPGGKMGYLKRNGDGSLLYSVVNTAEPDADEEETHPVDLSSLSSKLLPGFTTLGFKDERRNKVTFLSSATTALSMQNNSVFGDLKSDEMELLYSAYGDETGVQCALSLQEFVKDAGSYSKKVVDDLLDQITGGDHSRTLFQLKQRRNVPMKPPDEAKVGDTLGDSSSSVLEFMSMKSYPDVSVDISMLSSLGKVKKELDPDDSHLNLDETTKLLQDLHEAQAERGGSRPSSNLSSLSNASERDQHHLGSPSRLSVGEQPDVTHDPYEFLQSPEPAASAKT

dTM [1]: 4.8 K
SMILES: CN(C)CCCOc1ccc(-c2cc(NCCCn3cccn3)nc(S(C)(=O)=O)n2)cc1

SMILES: CNC(=O)Nc1ccc(-c2nc(N3CC4CCC(C3)O4)c3cnn(C4CCC5(CC4)OCCO5)c3n2)cc1
% of inhibition [2]: -1%

% of inhibition [3]: -0.901%
SMILES: CC[C@@H]1[C@H](F)C(=O)N[C@@H]1COc1nccc2cc(C(N)=O)c(OC)cc12 [ZIMLOVISERTIB]

SMILES: Cc1cc(F)c(C(=O)Nc2cccc(-c3nncn3C(C)C)n2)cc1-n1cnc(C2CC2)c1
% of control [4]: 99%

SMILES: CC(C)(O)[C@H](F)CN1Cc2cc(NC(=O)c3cnn4cccnc34)c(N3CCOCC3)cc2C1=O
dTM [5]: -0.5 K

SMILES: Nc1cnc(N2CCc3cc(S(=O)(=O)Nc4c(F)cc(Cl)cc4F)cc(N4CCCC4=O)c32)nc1 [TP-020n]
% of control [6]: 100%

SMILES: Cc1cc([C@@H](C)Nc2ccccc2C(=O)O)c2nc(N3CCOCC3)cc(=O)n2c1 [AZD-6482]
% of control [7]: 92%
% of control [8]: 99%
% of control [9]: 67%
